Assay results taken from article PMC7180572, “5-Alkylamino-N-phenylpyrazine-2-carboxamides: Design, Preparation, and Antimycobacterial Evaluation” (Molecules, 2020).
pIC50: −log10 of the molar value. Values after ≈ are worked out from the molar mass of the structure shown. Read-outs that look alike come from different tables or passages of the source.

Tests used:
[1] = test system: Staphylococcus aureus spp.aureus ATCC 29213, CCM 4223; experiment: Antibacterial microdilution broth method (EUCAST); format: cell-based; conditions: read-out: MIC SA
[2] = test system: Aspergillus fumigatus ATCC 204305; experiment: Antifungal microdilution broth method (EUCAST); format: cell-based; conditions: read-out: MIC AF
HepG2 cells = experiment: HepG2 cytotoxicity, CellTiter 96 (MTS) assay; format: cell-based, human; conditions: Homo sapiens, HepG2, 24 h, read-out: HepG2 IC50
[3] = test system: Mycobacterium smegmatis DSM 43465 (ATCC 607); experiment: Microdilution broth, modified Microplate Alamar Blue Assay, whole cell growth inhibition; format: cell-based; conditions: Mycolicibacterium smegmatis, read-out: MIC Mycobacterium smegmatis
[4] = test system: Trichophyton interdigitale ATCC 9533, CCM 8377; experiment: Antifungal microdilution broth method (EUCAST); format: cell-based; conditions: read-out: MIC TI
[5] = test system: Aspergillus flavus CCM 8363; experiment: Antifungal microdilution broth method (EUCAST); format: cell-based; conditions: read-out: MIC AFla
[6] = test system: Mycobacterium tuberculosis H37Ra ITM-M006710 (ATCC 9431); experiment: Microdilution broth, modified Microplate Alamar Blue Assay, whole cell growth inhibition; format: cell-based; conditions: Mycobacterium tuberculosis; in vitro, Middlebrook 7H9 broth, resazurin; read-out: MIC Mtb H37Ra
[7] = test system: Klebsiella pneumoniae ATCC 10031, CCM 4415; experiment: Antibacterial microdilution broth method (EUCAST)
[8] = test system: Staphylococcus epidermidis ATCC 12228, CCM 4418; experiment: Antibacterial microdilution broth method (EUCAST); format: cell-based; conditions: read-out: MIC SE
[9] = test system: Candida albicans ATCC 24433, CCM 8320; experiment: Antifungal microdilution broth method (EUCAST); format: cell-based; conditions: read-out: MIC CA
[10] = test system: Mycobacterium aurum DSM 43999 (ATCC 23366); experiment: Microdilution broth, modified Microplate Alamar Blue Assay, whole cell growth inhibition; format: cell-based; conditions: Mycolicibacterium aurum, read-out: MIC Mycobacterium aurum
[11] = test system: Enterococcus faecalis ATCC 29212, CCM 4224; experiment: Antibacterial microdilution broth method (EUCAST); format: cell-based; conditions: read-out: MIC EF
[12] = test system: Absidia corymbifera CCM 8077 (Lichtheimia corymbifera); experiment: Antifungal microdilution broth method (EUCAST); format: cell-based; conditions: read-out: MIC AC
[13] = test system: Escherichia coli ATCC 25922, CCM 3954; experiment: Antibacterial microdilution broth method (EUCAST); format: cell-based; conditions: read-out: MIC EC
[14] = test system: Pseudomonas aeruginosa ATCC 27853, CCM 3955; experiment: Antibacterial microdilution broth method (EUCAST); format: cell-based; conditions: read-out: MIC PA
[15] = test system: Acinetobacter baumanii ATCC 19606, DSM 30007; experiment: Antibacterial microdilution broth method (EUCAST); format: cell-based; conditions: Acinetobacter baumannii
[16] = test system: Candida krusei ATCC 6258, CCM 8271; experiment: Antifungal microdilution broth method (EUCAST); format: cell-based; conditions: Pichia kudriavzevii, read-out: MIC CK
[17] = test system: Candida parapsilosis ATCC 22019, CCM 8260; experiment: Antifungal microdilution broth method (EUCAST); format: cell-based; conditions: Lodderomyces parapsilosis, read-out: MIC CP
[18] = test system: Candida tropicalis ATCC 750, CCM 8264; experiment: Antifungal microdilution broth method (EUCAST); format: cell-based; conditions: read-out: MIC CT
[19] = test system: Staphylococcus aureus methicillin resistant ATCC 43300, CCM 4750; experiment: microbe, parasite or virus in culture; format: cell-based; conditions: ATCC 43300 / CCM 4750 / MRSA, read-out: MIC MRSA

Compound	MIC ([1]; 24 h) [µM]	MIC ([1]; 48 h) [µM]	MIC ([2]; ATCC204305, 24 h) [µM]	MIC ([2]; ATCC204305, 48 h) [µM]	pIC50 (HepG2 cells)	MIC [3] [µg/mL]	MIC ([4]; 72 h) [µM]	MIC ([4]; 120 h) [µM]	MIC ([5]; CCM8363, 24 h) [µM]	MIC ([5]; CCM8363, 48 h) [µM]	MIC [6] [µg/mL]	MIC KP ([7]; 24h) [µM]	MIC KP ([7]; 48h) [µM]	MIC ([8]; 24 h) [µM]	MIC ([8]; 48 h) [µM]	MIC ([9]; 24 h) [µM]	MIC ([9]; 48 h) [µM]	MIC [10] [µg/mL]	MIC ([11]; 24 h) [µM]	MIC ([11]; 48 h) [µM]	other results
CCCCCCNc1cnc(C(=O)Nc2cccc(C(F)(F)F)c2)cn1 [Compound 1d, 5-(Hexylamino)-N-(3-(trifluoromethyl)phenyl)pyrazine-2-carboxamide]	> 500	> 500	> 500	> 500	< 4.60	≥ 500	> 500	> 500	> 500	> 500	≥ 500	> 500	> 500	> 500	> 500	> 500	> 500	25 (≈ 68.2 µM)	> 500	> 500	MIC ([12]; CCM8077, 24 h): > 500 µM; MIC ([12]; CCM8077, 48 h): > 500 µM; MIC ([13]; 24 h): > 500 µM; MIC ([13]; 48 h): > 500 µM; MIC ([14]; 72 h): > 500 µM; MIC ([14]; 120 h): > 500 µM; MIC ([15]; 24h): > 500 µM; MIC ([15]; 48h): > 500 µM; MIC ([16]; 24 h): > 500 µM; MIC ([16]; 48 h): > 500 µM; MIC ([17]; 24 h): > 500 µM; MIC ([17]; 48 h): > 500 µM; MIC ([18]; 24 h): > 500 µM; MIC ([18]; 48 h): > 500 µM; melting point: 148 to 149 °C; MIC ([19]; 24 h): > 500 µM; MIC ([19]; 48 h): > 500 µM
CCCCCCCCNc1cnc(C(=O)Nc2ccc(C)cc2)cn1 [Compound 4f, 5-(octylamino)-N-(p-tolyl)pyrazine-2-carboxamide]	> 125	> 125	> 125	> 125	< 4.60	≥ 250	> 125	> 125	> 125	> 125	≥ 250	> 125	> 125	> 125	> 125	> 125	> 125	≥ 250	> 125	> 125	MIC ([12]; CCM8077, 24 h): > 125 µM; MIC ([12]; CCM8077, 48 h): > 125 µM; MIC ([13]; 24 h): > 125 µM; MIC ([13]; 48 h): > 125 µM; MIC ([14]; 72 h): > 125 µM; MIC ([14]; 120 h): > 125 µM; MIC ([15]; 24h): > 125 µM; MIC ([15]; 48h): > 125 µM; MIC ([16]; 24 h): > 125 µM; MIC ([16]; 48 h): > 125 µM; MIC ([17]; 24 h): > 125 µM; MIC ([17]; 48 h): > 125 µM; MIC ([18]; 24 h): > 125 µM; MIC ([18]; 48 h): > 125 µM; melting point: 155 to 156 °C; MIC ([19]; 24 h): > 125 µM; MIC ([19]; 48 h): > 125 µM
CCCCCCNc1cnc(C(=O)Nc2ccc(CC)cc2)cn1 [Compound 5d, N-(4-ethylphenyl)-5-(hexylamino)pyrazine-2-carboxamide]	> 500	> 500	> 125	> 125	< 4.60	≥ 500	> 125	> 125	> 125	> 125	≥ 500	> 500	> 500	> 500	> 500	> 125	> 125	≥ 500	> 500	> 500	MIC ([12]; CCM8077, 24 h): > 125 µM; MIC ([12]; CCM8077, 48 h): > 125 µM; MIC ([13]; 24 h): > 500 µM; MIC ([13]; 48 h): > 500 µM; MIC ([14]; 72 h): > 500 µM; MIC ([14]; 120 h): > 500 µM; MIC ([15]; 24h): > 500 µM; MIC ([15]; 48h): > 500 µM; MIC ([16]; 24 h): > 125 µM; MIC ([16]; 48 h): > 125 µM; MIC ([17]; 24 h): > 125 µM; MIC ([17]; 48 h): > 125 µM; MIC ([18]; 24 h): > 125 µM; MIC ([18]; 48 h): > 125 µM; melting point: 138 to 139 °C; MIC ([19]; 24 h): > 500 µM; MIC ([19]; 48 h): > 500 µM
